Patent US4613609A, “Antiarrhythmic imidazoliums” (Schering A. G., priority 1984, dated 1986)
Structures can show the parent of a compound that is named as a salt. Where two headings read alike, the source gives them in different places.

Tested on: Canine Purkinje fiber
Assay: In vitro electro-physiological screen using canine Purkinje fibers (action potential characteristics, microelectrode)
Format: cell-based
Settings: for EC10: read-out: C10 APD95: concentration of drug which causes a 10% increase or decrease (-) in APD95 from control value; for EC20: read-out: C20 APD95: concentration of drug which causes a 20% increase or decrease (-) in APD95 from control value; for Emax at 10 µM / Emax at 100 µM / Emax at 30 µM: read-out: MaxAPD95: maximum observed effect on APD95 from control value; for Vmax: change in the rate of rise of phase 0 of the action potential from control value (in words): concentration not given, NE = no effect; for inhibition at 100 µM: at 100 (concentration, μM)
Experimental: The primary method for evaluating these compounds as antiarrhythmic agents was an in vitro electro-physiological screen using canine Purkinje fibers. Using conventional microelectrode techniques the effects of the drugs on the action potential characteristics of the Purkinje fiber were measured. Both Class I and Class III antiarrhythmic agents can be disinguished using this method.

[1] = normal stimulated beat, basic cycle length 1000 milliseconds, NR = not reached
[2] = Canis lupus familiaris, purkinje, at 10 μM, basic cycle length 1000 milliseconds
[3] = Canis lupus familiaris, purkinje, normal stimulated beat, basic cycle length 1000 milliseconds, NR = not reached
[4] = Canis lupus familiaris, purkinje, at 10 (concentration, μM), read-out: Vmax: change in the rate of rise of phase 0 of the action potential from control value
[5] = Canis lupus familiaris, purkinje, basic cycle length 1000 milliseconds
[6] = Canis lupus familiaris, purkinje, read-out: Vmax: change in the rate of rise of phase 0 of the action potential from control value
[7] = Canis lupus familiaris, purkinje

## CCCCCCCn1cc[n+](CCCCc2ccc(OC)cc2)c1.[Br-] [Compound I-7]
At 10 μM, basic cycle length 1000 milliseconds
  MaxAPD95: maximum observed effect on APD95 from control value: 26%
At 10 (concentration, μM), 10 µM
  Vmax: change in the rate of rise of phase 0 of the action potential from control value: -12%
[1]
  EC10: 0.5 µM
  EC20: 8 µM

## CCCCC[n+]1ccn(CCCCc2ccc(Cl)cc2)c1 [Compound I-20, 1-[4-(4-Chlorophenyl)butyl]-3-pentylimidazolium dihydrogenphosphate]
[2]
  Emax at 10 µM: 23%
[3]
  EC10: 0.8 µM
  EC20: 6 µM

## CCCCCCC[n+]1ccn(CCCCc2ccc(F)cc2)c1 [Compound I-19, 1-[4-(4-Fluorophenyl)butyl]-3-heptylimidazolium dihydrogenphosphate]
[2]
  Emax at 10 µM: 20%
[4]
  inhibition at 10 µM: 6%
[3]
  EC10: 1 µM
  EC20: 10 µM

## CCCCn1cc[n+](CCCCc2ccc(Cl)cc2)c1 [Compound I-21, 1-Butyl-3-[4-(4-chlorophenyl)butyl]imidazolium dihydrogenphosphate]
[2]
  Emax at 10 µM: 25%
[3]
  EC10: 2 µM
  EC20: 6 µM

## Cc1n(C)cc[n+]1CCCCc1ccc(NS(C)(=O)=O)cc1 [Compound I-30, 1,2-Dimethyl-3-[4-[4-[[methanesulfonyl]amino]phenyl]butyl]imidazolium methanesulfonate]
[2]
  Emax at 10 µM: 23%
[3]
  EC10: 1 µM
  EC20: 7 µM

## Cc1n(CCCCc2ccc(Cl)cc2)cc[n+]1C [Compound I-34, 1-[4-(4-Chlorophenyl)butyl]-2,3-dimethylimidazolium chloride]
[2]
  Emax at 10 µM: 25%
[3]
  EC10: 1.4 µM
  EC20: 6 µM

## O=[N+]([O-])c1ccc(C(O)Cn2ccnc2)cc1 (stereo not drawn) [II-6, α-(4-Nitrophenyl)-1H-imidazole-1-ethanol]
[5]
  Emax at 100 µM: 28%
[3]
  EC10: 15 µM
  EC20: 43 µM

## CCCCCCC[n+]1ccn(CCCCc2ccc(Cl)cc2)c1 [Compound I-1, 1-[4-(4-Chlorophenyl)butyl]-3-heptylimidazolium chloride]
Canis lupus familiaris, purkinje, at 30 μM, basic cycle length 1000 milliseconds
  Emax at 30 µM: 27%
Canis lupus familiaris, purkinje, at 15 (concentration, μM), read-out: Vmax: change in the rate of rise of phase 0 of the action potential from control value
  inhibition at 15 µM: 20%
[3]
  EC10: 12 µM

## CCCCCCCn1cc[n+](CC(=O)c2ccc(NS(C)(=O)=O)cc2)c1 [Compound I-39, 1-Heptyl-3-[2-[4-[(methanesulfonyl)amino]phenyl]-2-oxoethyl]imidazolium br omide]
[2]
  Emax at 10 µM: 21%
[3]
  EC10: 1.7 µM
  EC20: 9 µM

## Nc1ccc(C(=O)Cn2ccnc2)cc1 [II-5, 1-(4-Aminophenyl)-2-(1H-imidazol-1-yl)ethanone]
[2]
  Emax at 10 µM: 13%
[3]
  EC10: 4 µM
  Vmax: change in the rate of rise of phase 0 of the action potential from control value (in words): Minimal

## CS(=O)(=O)Nc1ccc(C(O)Cn2ccnc2)cc1 (stereo not shown) [II-4, N-[4-(1-Hydroxy-2-(1H-imidazol-1-yl)ethyl]phenyl]methanesulfonamide]
[2]
  Emax at 10 µM: 23%
[4]
  inhibition at 10 µM: 15%
[3]
  EC10: 2 µM
  EC20: 7 µM

## CCCCCCC[n+]1ccn(C/C=C\Cc2ccc(Cl)cc2)c1 [Compound I-42, (Z)-1-[4-(4-Chlorophenyl)-2-butenyl]-3-heptylimidazolium dihydrogenphosphate]
[5]
  Emax at 100 µM: 12%
[6]
  inhibition at 100 µM: 26%
[3]
  EC10: 38 µM

## CCC[n+]1ccn(CCCCc2ccc(Cl)cc2)c1.O=P([O-])(O)O [Compound I-16, 1-[4-(4-Chlorophenyl)butyl]-3-propylimidazolium dihydrogenphosphate]
[2]
  Emax at 10 µM: 11%
[3]
  EC10: 6 µM
At >10 (concentration, μM)
  Vmax: change in the rate of rise of phase 0 of the action potential from control value: -20%

## O=[N+]([O-])c1ccc(CCCCn2ccnc2)cc1 [II-1, 1-[4-(4-Nitrophenyl)butyl]imidazole hydrochloride]
[2]
  Emax at 10 µM: 27%
[3]
  EC10: 1.2 µM
  EC20: 4 µM

## CS(=O)(=O)Nc1ccc(C(=O)Cn2ccnc2)cc1 [II-2, N-[4-(1H-Imidaz-1-ylacetyl)phenyl]methanesulfonamide]
[5]
  Emax at 100 µM: 67%
[6]
  inhibition at 100 µM: 15%
[3]
  EC10: 3 µM
  EC20: 14 µM

## O=C(Cn1ccnc1)c1ccc([N+](=O)[O-])cc1 [II-3, 2-(1H-Imidaz-1-yl)-1-(4-nitrophenyl)ethanone hydrochloride]
[5]
  Emax at 100 µM: 29%
[3]
  EC10: 20 µM
  EC20: 50 µM

## CCCCCCC[n+]1ccn(CCCCc2ccc(NC(C)=O)cc2)c1.Cc1ccc(S(=O)(=O)[O-])cc1 [Compound I-14, 1-[4-(4-(Acetylamino)phenyl)butyl]-3-heptylimidazolium 4-methylbenzenesulfonate]
[7]
  EC10: 13 µM
  EC20: 30 µM
  Emax at 30 µM: 21%
  Vmax: change in the rate of rise of phase 0 of the action potential from control value (in words): increased

## Cn1cc[n+](CC(=O)c2ccc(NS(C)(=O)=O)cc2)c1 [Compound I-44, 1-Methyl-3-[2-[4-((methylsulfonyl)amino)phenyl]-2-oxoethyl]-1H-imidazoliumbromide]
[2]
  Emax at 10 µM: 38%
[3]
  EC10: 1 µM
  EC20: 2.3 µM

## C[n+]1ccn(CC(O)c2ccc(NS(C)(=O)=O)cc2)c1 (stereo not shown) [Compound I-38, 1-[2-Hydroxy-2-[4-[(methanesulfonyl)amino]phenyl]ethyl]-3-methylimidazolium iodide]
[2]
  Emax at 10 µM: 63%
[4]
  inhibition at 10 µM: 5%
[3]
  EC10: 0.3 µM
  EC20: 0.8 µM

## CS(=O)(=O)Nc1ccc(CCn2ccnc2)cc1 [II-7, N-[4-[2-(1H-Imidazol-1-yl)ethyl]phenyl]methanesulfonamide]
[5]
  Emax at 100 µM: 47%
[3]
  EC10: 2 µM
  EC20: 10 µM

## CCCCCCCn1cc[n+](CCCCc2ccc(NS(C)(=O)=O)cc2)c1.O=P([O-])(O)O [Compound I-22, 1-Heptyl-3-[4-[4-[[(methyl)sulfonyl]amino]phenyl]butyl]imidazolium dihydrogenphosphate]
[2]
  Emax at 10 µM: 39%
[3]
  EC10: 1.3 µM
  EC20: 3 µM
  Vmax: change in the rate of rise of phase 0 of the action potential from control value (in words): Minimal

## O=[N+]([O-])c1ccc(CCn2ccnc2)cc1 [II-8, 1-[2-(4-Nitrophenyl)ethyl]-1H-imidazole hydrochloride]
[5]
  Emax at 100 µM: 29%
Canis lupus familiaris, purkinje, at 0.1 (concentration, μM), read-out: Vmax: change in the rate of rise of phase 0 of the action potential from control value
  inhibition at 0.1 µM: 15%
[3]
  EC10: 7 µM
  EC20: 30 µM

## CCCCCCC[n+]1ccn(CCC#Cc2ccc(Cl)cc2)c1 [Compound I-29, 1-[4-(4-Chlorophenyl)-3-butynyl]-3-heptylimidazolium 4-methylbenzenesulfonate]
[7]
  EC10: 20 µM
  Emax at 30 µM: 15%
[6]
  inhibition at 20 µM: 20%

## CCCCCCC[n+]1ccn(C(C)CCCc2ccc(Cl)cc2)c1 (stereo not shown) [Compound I-25, 1-[4-(4-Chlorophenyl)-1-methylbutyl]-3-heptylimidazolium 4-methylbenzenesulfonate]
[7]
  EC10: 10 µM
  Emax at 10 µM: 10%

## Cn1cc[n+](CCc2ccc(NS(C)(=O)=O)cc2)c1 [Compound I-43, 1-Methyl-3-[2-[4-((methylsulfonyl)amino)phenyl]ethyl]-1H-imidazolium iodide]
[2]
  Emax at 10 µM: 21%
[3]
  EC10: 2 µM
  EC20: 8 µM
